Experimental data published in the supplement of paper PMC10307832.

What was measured:
Experiment in all cases: relative viability (nuclei count vs DMSO), 5 days (fraction); higher = more cells survive
[1] = compound: C1CN(CCC1C(C2=CC3=C(C=C2)OCO3)(C4=CC5=C(C=C4)OCO5)O)C(=O)OC6=CC=C(C=C6)[N+](=O)[O-] [JZL-184]
Summary of the method: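 A plate was accepted only when its control CV was below 25% and the cells had doubled at least once. Viability is defined from nuclear counts as treated wells divided by vehicle wells, with the median taken across plates. That median covers lung cancer cell lines grown in 1536-well plates, dosed by pinning at five √10-spaced library-drug concentrations, and counted in MetaXpress from 4× Hoechst images after 5 days.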

[2] = compound: C1CN(CCC1C(C2=CC3=C(C=C2)OCO3)(C4=CC5=C(C=C4)OCO5)O)C(=O)OC6=CC=C(C=C6)[N+](=O)[O-] [JZL-184] + N=C(N)NC(=N)NCCc1ccccc1 [Phenformin] (partner 250 µM)
Summary of the method: (§1)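 One day after seeding in 1536-well plates, lung cancer cell lines were dosed by pin tool. Dosing was either single-drug or a fixed anchor-drug dose plus five library-drug doses (not always all listed) in √10 steps. After 5 days, nuclei were stained in one fix-and-stain step and counted on 4× images, and relative viability is the nuclei count of treated wells over that of vehicle wells, given as the median of duplicate plates.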

[3] = compound: C1CN(CCC1C(C2=CC3=C(C=C2)OCO3)(C4=CC5=C(C=C4)OCO5)O)C(=O)OC6=CC=C(C=C6)[N+](=O)[O-] [JZL-184] + COc1cc2c(Oc3ccc(NC(=O)C4(C(=O)Nc5ccc(F)cc5)CC4)cc3F)ccnc2cc1OCCCN1CCOCC1 [Foretinib] (partner 0.25 µM)
Summary of the method: as §1

[4] = compound: C1CN(CCC1C(C2=CC3=C(C=C2)OCO3)(C4=CC5=C(C=C4)OCO5)O)C(=O)OC6=CC=C(C=C6)[N+](=O)[O-] [JZL-184] + Cc1nc(Nc2ncc(C(=O)Nc3c(C)cccc3Cl)s2)cc(N2CCN(CCO)CC2)n1 [Dasatinib] (partner 0.075 µM)
Summary of the method: as §1

[5] = compound: C1CN(CCC1C(C2=CC3=C(C=C2)OCO3)(C4=CC5=C(C=C4)OCO5)O)C(=O)OC6=CC=C(C=C6)[N+](=O)[O-] [JZL-184] + CCNC(=O)c1noc(-c2cc(C(C)C)c(O)cc2O)c1-c1ccc(CN2CCOCC2)cc1 [Luminespib] (partner 0.01 µM)
Summary of the method: as §1

[6] = compound: C1CN(CCC1C(C2=CC3=C(C=C2)OCO3)(C4=CC5=C(C=C4)OCO5)O)C(=O)OC6=CC=C(C=C6)[N+](=O)[O-] [JZL-184] + Cc1cc(Nc2cc(N3CCN(C)CC3)nc(Sc3ccc(NC(=O)C4CC4)cc3)n2)n[nH]1 [Tozasertib] (partner 0.1 µM)
Summary of the method: as §1

[7] = compound: C1CN(CCC1C(C2=CC3=C(C=C2)OCO3)(C4=CC5=C(C=C4)OCO5)O)C(=O)OC6=CC=C(C=C6)[N+](=O)[O-] [JZL-184] + COc1cccc2cc(-c3nc([C@H]4CC[C@H](C(=O)O)CC4)n4ncnc(N)c34)[nH]c12 [OSI-027] (partner 0.5 µM)
Summary of the method: as §1

[8] = compound: C1CN(CCC1C(C2=CC3=C(C=C2)OCO3)(C4=CC5=C(C=C4)OCO5)O)C(=O)OC6=CC=C(C=C6)[N+](=O)[O-] [JZL-184] + CS(=O)(=O)N1CCN(Cc2cc3nc(-c4cccc5[nH]ncc45)nc(N4CCOCC4)c3s2)CC1 [Pictilisib] (partner 1 µM)
Summary of the method: as §1

[9] = compound: C1CN(CCC1C(C2=CC3=C(C=C2)OCO3)(C4=CC5=C(C=C4)OCO5)O)C(=O)OC6=CC=C(C=C6)[N+](=O)[O-] [JZL-184] + CC1(C)CCC(c2ccc(Cl)cc2)=C(CN2CCN(c3ccc(C(=O)NS(=O)(=O)c4ccc(N[C@H](CCN5CCOCC5)CSc5ccccc5)c(S(=O)(=O)C(F)(F)F)c4)cc3)CC2)C1 [Navitoclax] (partner 0.5 µM)
Summary of the method: as §1

[10] = compound: C1CN(CCC1C(C2=CC3=C(C=C2)OCO3)(C4=CC5=C(C=C4)OCO5)O)C(=O)OC6=CC=C(C=C6)[N+](=O)[O-] [JZL-184] + O=C(c1cc(Cc2n[nH]c(=O)c3ccccc23)ccc1F)N1CCN(C(=O)C2CC2)CC1 [Olaparib] (partner 8 µM)
Summary of the method: as §1

[11] = compound: C1CN(CCC1C(C2=CC3=C(C=C2)OCO3)(C4=CC5=C(C=C4)OCO5)O)C(=O)OC6=CC=C(C=C6)[N+](=O)[O-] [JZL-184] + CS(=O)(=O)CCNCc1ccc(-c2ccc3ncnc(Nc4ccc(OCc5cccc(F)c5)c(Cl)c4)c3c2)o1 [Lapatinib] (partner 2 µM)
Summary of the method: as §1

[12] = compound: C1CN(CCC1C(C2=CC3=C(C=C2)OCO3)(C4=CC5=C(C=C4)OCO5)O)C(=O)OC6=CC=C(C=C6)[N+](=O)[O-] [JZL-184] + C[C@@H](Oc1cc(-c2cnn(C3CCNCC3)c2)cnc1N)c1c(Cl)ccc(F)c1Cl [Crizotinib] (partner 1 µM)
Summary of the method: as §1

[13] = compound: C1CN(CCC1C(C2=CC3=C(C=C2)OCO3)(C4=CC5=C(C=C4)OCO5)O)C(=O)OC6=CC=C(C=C6)[N+](=O)[O-] [JZL-184] + C[C@]1(O)C[C@@H](c2nc(-c3ccc4ccc(-c5ccccc5)nc4c3)c3c(N)nccn32)C1 [Linsitinib] (partner 1 µM)
Summary of the method: as §1

[14] = compound: C1CN(CCC1C(C2=CC3=C(C=C2)OCO3)(C4=CC5=C(C=C4)OCO5)O)C(=O)OC6=CC=C(C=C6)[N+](=O)[O-] [JZL-184] + Nc1ncn([C@H]2C[C@H](O)[C@@H](CO)O2)c(=O)n1 [Decitabine] (partner 2 µM)
Summary of the method: as §1

[15] = compound: C1CN(CCC1C(C2=CC3=C(C=C2)OCO3)(C4=CC5=C(C=C4)OCO5)O)C(=O)OC6=CC=C(C=C6)[N+](=O)[O-] [JZL-184] + Cc1nc(NC(=O)N2CCC[C@H]2C(N)=O)sc1-c1ccnc(C(C)(C)C(F)(F)F)c1 [Alpelisib] (partner 2 µM)
Summary of the method: as §1

## NCI-H1623
[1]; 0.04 µM
  relative viability: 0.941
[1]; 0.4 µM
  relative viability: 0.988
[1]; 1.265 µM
  relative viability: 1
[1]; 4 µM
  relative viability: 0.937
[2]; first compound 0.04 µM
  relative viability: 0.566
[2]; first compound 0.4 µM
  relative viability: 0.551
[2]; first compound 1.265 µM
  relative viability: 0.595
[2]; first compound 4 µM
  relative viability: 0.565
[3]; first compound 0.04 µM
  relative viability: 0.904
[3]; first compound 0.4 µM
  relative viability: 0.818
[3]; first compound 1.265 µM
  relative viability: 0.944
[3]; first compound 4 µM
  relative viability: 0.807
[4]; first compound 0.04 µM
  relative viability: 0.512
[4]; first compound 0.4 µM
  relative viability: 0.561
[4]; first compound 1.265 µM
  relative viability: 0.573
[4]; first compound 4 µM
  relative viability: 0.47
[5]; first compound 0.04 µM
  relative viability: 0.389
[5]; first compound 0.4 µM
  relative viability: 0.411
[5]; first compound 1.265 µM
  relative viability: 0.626
[5]; first compound 4 µM
  relative viability: 0.585
[6]; first compound 0.04 µM
  relative viability: 0.453
[6]; first compound 0.4 µM
  relative viability: 0.442
[6]; first compound 1.265 µM
  relative viability: 0.442
[6]; first compound 4 µM
  relative viability: 0.482
[7]; first compound 0.04 µM
  relative viability: 0.463
[7]; first compound 0.4 µM
  relative viability: 0.438
[7]; first compound 1.265 µM
  relative viability: 0.464
[7]; first compound 4 µM
  relative viability: 0.446

## A549
[1]; 0.04 µM
  relative viability: 1.1
[1]; 0.4 µM
  relative viability: 0.928
[1]; 1.265 µM
  relative viability: 1.01
[1]; 4 µM
  relative viability: 0.957
[8]; first compound 0.04 µM
  relative viability: 0.643
[8]; first compound 0.4 µM
  relative viability: 0.451
[8]; first compound 1.265 µM
  relative viability: 0.478
[8]; first compound 4 µM
  relative viability: 0.498
[9]; first compound 0.04 µM
  relative viability: 1.18
[9]; first compound 0.4 µM
  relative viability: 1
[9]; first compound 1.265 µM
  relative viability: 1.24
[9]; first compound 4 µM
  relative viability: 1.23
[2]; first compound 0.04 µM
  relative viability: 0.195
[2]; first compound 0.4 µM
  relative viability: 0.167
[2]; first compound 1.265 µM
  relative viability: 0.164
[2]; first compound 4 µM
  relative viability: 0.112
[3]; first compound 0.04 µM
  relative viability: 1.23
[3]; first compound 0.4 µM
  relative viability: 0.942
[3]; first compound 1.265 µM
  relative viability: 1.06
[3]; first compound 4 µM
  relative viability: 0.976
[10]; first compound 0.04 µM
  relative viability: 0.31
[10]; first compound 0.4 µM
  relative viability: 0.288
[10]; first compound 1.265 µM
  relative viability: 0.382
[10]; first compound 4 µM
  relative viability: 0.367
[11]; first compound 0.04 µM
  relative viability: 1.06
[11]; first compound 0.4 µM
  relative viability: 0.967
[11]; first compound 1.265 µM
  relative viability: 0.955
[11]; first compound 4 µM
  relative viability: 1.01
[12]; first compound 0.04 µM
  relative viability: 0.609
[12]; first compound 0.4 µM
  relative viability: 0.765
[12]; first compound 1.265 µM
  relative viability: 0.68
[12]; first compound 4 µM
  relative viability: 0.699
[13]; first compound 0.04 µM
  relative viability: 0.559
[13]; first compound 0.4 µM
  relative viability: 0.457
[13]; first compound 1.265 µM
  relative viability: 0.519
[13]; first compound 4 µM
  relative viability: 0.633
[14]; first compound 0.04 µM
  relative viability: 0.278
[14]; first compound 1.265 µM
  relative viability: 0.26
[14]; first compound 4 µM
  relative viability: 0.273
[15]; first compound 0.04 µM
  relative viability: 0.966
[15]; first compound 0.4 µM
  relative viability: 0.588
[15]; first compound 1.265 µM
  relative viability: 0.894
[15]; first compound 4 µM
  relative viability: 0.614
